Test results reported in patent publication US6682739B1, “Methods of inhibiting osteoclastogenesis” (The Trustees of the University of Pennsylvania, priority 1999, dated 2004).
Positions of bridges follow the written chain, without caps; N, C: chain ends. No end group written: not given here.

Tests used:
[1] = tested on: TRANCE-induced marrow cultures (RANK Ligand/RANK interaction); test: TRANCE-induced marrow cultures; assay type: cell-based; conditions: reciprocal dose-dependence of WP9QY and TRANCE
TNF-α receptor = conditions: L929 lymphocytes; cited from earlier work
[2] = tested on: osteoclast formation (osteoclastogenesis); conditions: co-culture induced by 1alpha,25-dihydroxyvitamin D3 and PGE2
[3] = tested on: osteoclastogenesis and associated bone resorption; conditions: administration in vivo; animal models that mimic osteopenic disorders; cited from earlier work
TNF = target: T1, TNF (UniProt P01375 77-233); test: inhibition of the TNF/TNF receptor interaction; format not described in Example 1
T1 construct: also called TNF-alpha; Tumor Necrosis Factor
T1 sequence (P01375 77-233 limits assumed): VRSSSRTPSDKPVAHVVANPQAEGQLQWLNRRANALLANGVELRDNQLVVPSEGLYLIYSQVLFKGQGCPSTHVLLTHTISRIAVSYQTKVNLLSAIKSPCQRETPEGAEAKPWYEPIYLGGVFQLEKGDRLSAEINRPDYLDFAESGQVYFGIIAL

CC(C)C[C@@H]1NC(=O)[C@H](Cc2ccc(O)cc2)NC(=O)[C@H](CCC(N)=O)NC(=O)[C@H](CO)NC(=O)[C@H](Cc2c[nH]c3ccccc23)NC(=O)[C@@H](NC(=O)[C@@H](N)Cc2ccc(O)cc2)CSSC[C@@H](C(=O)N[C@@H](Cc2ccc(O)cc2)C(=O)O)NC1=O [WP9QY, YC WSQYL CY]
effect on TRANCE-induced marrow cultures [1]: inhibits
antagonism of the effects of TNF-binding to the TNF-α receptor (TNF-α receptor): efficiently antagonized
inhibition of osteoclastogenesis, in words [2]: dose- and time-dependently inhibited
IC50 ([2]; read-out: IC50 for inhibition of osteoclastogenesis, peptide tested at about 5 μM to about 500 μM): 250 µM

B1: OPG: naturally occurring secreted protein with homology to members of the TNF receptor family; positive control in the TRAP assay (protein, UniProt O00300 22-401, looked up)
Tumor necrosis factor …: ETFPPKYLHYDEETSHQLLCDKCPPGTYLKQHCTAKWKTVCAPCPDHYYTDSWHTSDECLYCSPVCKELQYVKQECNRTHNRVCECKEGRYLEIEFCLKHRSCPPGFGVVQAGTPERNTVCKRCPDGFFSNETSSKAPCRKHTNCSVFGLLLTQKGNATHDNICSGNSESTQKCGIDVTLCEEAFFRFAVPTKFTPNWLSVLVDNLPGTKVNAESVERIKRQHSSQEQTFQLLKLWKHQNKDQDIVKKIIQDIDLCENSVQRHIGHANLTFEQLRSLMESLPGKKVGAEDIEKTIKACKPSDQILKLLSLWRIKNGDQDTLKGLMHALKHSKTYHFPKTVTQSLKKTIRFLHSFTMYKLYQKLFLEMIGNQVQSVKISCL
effect on osteoclastogenesis and associated bone resorption in vivo [3]: inhibits osteoclastogenesis and associated bone resorption

B2: WP9QY (peptide)
peptide: YCWSQYLCY
modifications: disulfide 2-8
notes: Synthetic exocyclic peptide; also called WP9QY peptide; peptidomimetic (WP9QY)
IC50 (TNF): 5 µM
